According to ChEMBL document CHEMBL1201862, “PubChem BioAssay data set” (2004):
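Each compound was tested at five concentrations against cells in 96-well plates for 48 hours. Abbreviation: GI50, concentration required for 50% inhibition of growth.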 Active and inactive are the calls of the source. Cut-off read from the data, not from the text of the source: active = GI50 up to about 1.1 µM and inactive = higher.

Tests used:
Experiment in all cases: NCI anticancer screen, dose series, 48 h
[1] = system: MDA-N
[2] = system: NCI-H522
[3] = system: SF-268
[4] = system: RPMI-8226
[5] = system: SNB-19
[6] = system: TK-10
[7] = system: NCI-H226
[8] = system: A549
[9] = system: SF-295
[10] = system: CCRF-CEM
[11] = system: DU-145
[12] = system: HOP-62
[13] = system: RXF 393
[14] = system: NCI-H23
[15] = system: HCT-15
[16] = system: UACC-257
[17] = system: OVCAR-5

SMILES	GI50 [1]	GI50 [2]	GI50 [3]	GI50 [4]	GI50 [5]	GI50 [6]	GI50 [7]	GI50 [8]	GI50 [9]	GI50 [10]	GI50 [11]	GI50 [12]	GI50 [13]	GI50 [14]	GI50 [15]	GI50 [16]	GI50 [17]
CC(N/N=C(\S)N1CCCC1)c1cccnn1 (centres undefined)	1.84 µM (inactive)	2.31 µM (inactive)	0.259 µM (active)	0.434 µM (active)	0.513 µM (active)	0.54 µM (active)	1.13 µM (inactive)	0.342 µM (active)	0.451 µM (active)	0.274 µM (active)	0.789 µM (active)	0.312 µM (active)	0.315 µM (active)	0.561 µM (active)	0.443 µM	0.267 µM (active)	0.318 µM (active)
Cc1ccc(S(=O)(=O)Oc2cc(S(=O)(=O)O)cc3cc(S(=O)(=O)O)cc(N)c23)cc1	> 100 µM (inactive)	> 100 µM (inactive)	> 100 µM (inactive)	> 100 µM (inactive)	> 100 µM (inactive)	> 100 µM (inactive)	> 100 µM (inactive)	> 100 µM (inactive)	> 100 µM (inactive)	> 100 µM (inactive)	> 100 µM (inactive)	> 100 µM (inactive)	> 100 µM (inactive)	> 100 µM (inactive)	> 100 µM	> 100 µM (inactive)	> 100 µM (inactive)
CC(C)=CCc1c(O)cc2oc(-c3ccc(O)cc3O)cc(=O)c2c1O	25.2 µM (inactive)	22.3 µM (inactive)	38.8 µM (inactive)	17.4 µM (inactive)	40.6 µM (inactive)	22 µM (inactive)	57 µM (inactive)	28.5 µM (inactive)	31.6 µM (inactive)	8.11 µM (inactive)	29.3 µM (inactive)	33.3 µM (inactive)	26.4 µM (inactive)	24.6 µM (inactive)	23 µM	30.9 µM (inactive)	31 µM (inactive)
CCOC1SC(SC)=NN1C(=O)C(OC(C)=O)C(OC(C)=O)C(OC(C)=O)C(OC(C)=O)C(=O)N1N=C(SC)SC1OCC (centres undefined)	> 100 µM (inactive)	> 100 µM (inactive)	> 100 µM (inactive)	> 100 µM (inactive)	> 100 µM (inactive)	> 100 µM (inactive)	> 100 µM (inactive)	> 100 µM (inactive)	> 100 µM (inactive)	> 100 µM (inactive)	> 100 µM (inactive)	> 100 µM (inactive)	75.2 µM (inactive)	> 100 µM (inactive)	> 100 µM	> 100 µM (inactive)	> 100 µM (inactive)
O=C(Cc1ccc(OCc2cccc(Cl)c2)cc1)NO	58.9 µM (inactive)	15.8 µM (inactive)	20 µM (inactive)	3.77 µM (inactive)	37.2 µM (inactive)	34.8 µM (inactive)	19.4 µM (inactive)	27.5 µM (inactive)	32 µM (inactive)	6.76 µM (inactive)	21.5 µM (inactive)	24.6 µM (inactive)	26 µM (inactive)	34 µM (inactive)	14.1 µM	53.5 µM (inactive)	30.3 µM (inactive)
O=C1c2ccccc2C(=O)c2c1ccc1nc3c(nc21)-c1c2ccccc2cc2cccc-3c12	32.6 µM (inactive)	27.2 µM (inactive)	29.4 µM (inactive)	39.5 µM (inactive)	38.4 µM (inactive)	52.4 µM (inactive)	> 68.9 µM (inactive)	45.6 µM (inactive)	21.4 µM (inactive)	5.33 µM (inactive)	29.2 µM (inactive)	26.5 µM (inactive)	39.4 µM (inactive)	41.6 µM (inactive)	29.4 µM	> 100 µM (inactive)	> 100 µM (inactive)
COC(=O)c1c(OC(C)=O)ccc2c1c1c(OC(C)=O)c3ccccc3c(OC(C)=O)c1n2Cc1ccccc1	14.2 µM (inactive)	0.783 µM (active)	3.44 µM (inactive)	1.52 µM (inactive)	9.51 µM (inactive)	13 µM (inactive)	10.9 µM (inactive)	2.75 µM (inactive)	2.55 µM (inactive)	6.68 µM (inactive)	11.1 µM (inactive)	8.61 µM (inactive)	5.77 µM (inactive)	6.03 µM (inactive)	4.78 µM	16.3 µM (inactive)	7.46 µM (inactive)
CCCCCCCCCCCCCCC[C@@H](O)C[N+](C)(C)CCO	5.98 µM (inactive)	1.42 µM (inactive)	1.72 µM (inactive)	2.21 µM (inactive)	1.63 µM (inactive)	1.31 µM (inactive)	2.79 µM (inactive)	3.49 µM (inactive)	2.37 µM (inactive)	1.25 µM (inactive)	7.66 µM (inactive)	2.88 µM (inactive)	1.11 µM (active)	2.06 µM (inactive)	2.6 µM	10.2 µM (inactive)	2.24 µM (inactive)
C[N+]12CCCCC1C(CN1C(=O)Cc3c4ccccc4c(c4ccccc34)CC1=O)CCC2 (centres undefined)	> 100 µM (inactive)	> 100 µM (inactive)	> 100 µM (inactive)	> 100 µM (inactive)	> 100 µM (inactive)	> 100 µM (inactive)	> 100 µM (inactive)	> 100 µM (inactive)	> 100 µM (inactive)	> 100 µM (inactive)	> 100 µM (inactive)	> 100 µM (inactive)	> 100 µM (inactive)	> 100 µM (inactive)	> 100 µM	> 100 µM (inactive)	> 100 µM (inactive)
CC1=NN(c2ccccc2)C(=O)C1/N=N/c1ccc([As](=O)(O)O)c(O)c1 (centres undefined)	> 100 µM (inactive)	> 100 µM (inactive)	> 100 µM (inactive)	57 µM (inactive)	> 100 µM (inactive)	> 100 µM (inactive)	> 100 µM (inactive)	> 100 µM (inactive)	> 100 µM (inactive)	25.4 µM (inactive)	> 100 µM (inactive)	> 100 µM (inactive)	> 100 µM (inactive)	> 100 µM (inactive)	> 100 µM	> 100 µM (inactive)	> 100 µM (inactive)
CC(=O)/C=C/C=C(\C)CC/C=C(\C)CC(C)C	30.2 µM (inactive)	17.6 µM (inactive)	39.7 µM (inactive)	17.1 µM (inactive)	42.4 µM (inactive)	> 100 µM (inactive)	26.9 µM (inactive)	34 µM (inactive)	30.8 µM (inactive)	13.5 µM (inactive)	58.6 µM (inactive)	41.3 µM (inactive)	16.2 µM (inactive)	23.6 µM (inactive)	16 µM	23.3 µM (inactive)	61.2 µM (inactive)
O=C1C(C(c2ccc([N+](=O)[O-])cc2)N2CCOCC2)=C(O)C(c2ccccc2)N1c1ccccc1 (centres undefined)	> 10 µM (inactive)	> 10 µM (inactive)	> 10 µM (inactive)	> 10 µM (inactive)	> 10 µM (inactive)	> 10 µM (inactive)	> 10 µM (inactive)	> 10 µM (inactive)	> 10 µM (inactive)	> 10 µM (inactive)	> 10 µM (inactive)	> 10 µM (inactive)	> 10 µM (inactive)	> 10 µM (inactive)	> 10 µM	> 10 µM (inactive)	> 10 µM (inactive)
